Species: Rattus norvegicus
Assay: DrugMatrix - Regimen: Daily Repeat
Format: toxicity, organism-based, Sprague-Dawley
Design: regimen Daily Repeat, gender Male, age 6-8 weeks
Details: in vivo, po, route oral GAVAGE, […]; for ABSOLUTE BASOPHIL / ABSOLUTE EOSINOPHIL / ABSOLUTE LYMPHOCYTE / ABSOLUTE MONOCYTE / ABSOLUTE SEGMENTED NEUTROPHIL / BASOPHIL / EOSINOPHIL / ERYTHROCYTE COUNT / HEMATOCRIT / LEUKOCYTE COUNT / LYMPHOCYTE / MEAN CORPUSCULAR HEMOGLOBIN / MEAN CORPUSCULAR HEMOGLOBIN CONCENTRATION / MEAN CORPUSCULAR VOLUME / NEUTROPHIL / NUCLEATED RED BLOOD CELLS / PLATELET COUNT / HEMOGLOBIN: tissue Blood; for ALANINE AMINOTRANSFERASE / ALBUMIN / ALKALINE PHOSPHATASE / ASPARTATE AMINOTRANSFERASE / BLOOD UREA NITROGEN / CARBON DIOXIDE / CHLORIDE / CHOLESTEROL / CREATINE PHOSPHOKINASE / CREATININE / LACTATE DEHYDROGENASE / LIPASE / PHOSPHORUS / POTASSIUM / SODIUM / TOTAL BILIRUBIN / URIC ACID: tissue Plasma
[1] = 0 mg/kg, 72 h, dose level Control, time 3 day
[2] = 0 mg/kg, 120 h, dose level Control, time 5 day
[3] = 0 mg/kg, dose level Control, time 28 day
[4] = 10 mg/kg, 72 h, dose level High, time 3 day
[5] = 10 mg/kg, 120 h, dose level High, time 5 day

SMILES: O=C(O)Cc1ccccc1Nc1c(Cl)cccc1Cl [DICLOFENAC]
- ABSOLUTE BASOPHIL [1]: 0 CELLS/uL
- ABSOLUTE EOSINOPHIL [1]: 0 CELLS/uL
- ABSOLUTE LYMPHOCYTE [1]: 8493 CELLS/uL
- ABSOLUTE MONOCYTE [1]: 127 CELLS/uL
- ABSOLUTE SEGMENTED NEUTROPHIL [1]: 896.67 CELLS/uL
- BASOPHIL [1]: 0%
- EOSINOPHIL [1]: 0%
- ERYTHROCYTE COUNT [1]: 5.53 x10E6/uL
- HEMATOCRIT [1]: 34.07%
- LEUKOCYTE COUNT [1]: 9.52 x10E3/uL
- LYMPHOCYTE [1]: 89.17%
- MEAN CORPUSCULAR HEMOGLOBIN [1]: 24.07 pg
- MEAN CORPUSCULAR HEMOGLOBIN CONCENTRATION [1]: 39.03 G/DL
- MEAN CORPUSCULAR VOLUME [1]: 61.62 fL
- NEUTROPHIL [1]: 9.5%
- NUCLEATED RED BLOOD CELLS [1]: 0.17 /100WBC
- PLATELET COUNT [1]: 1054.17 x10E3/uL
- ALANINE AMINOTRANSFERASE [1]: 77.67 u/L
- ALBUMIN [1]: 4.08 G/DL
- ALKALINE PHOSPHATASE [1]: 404.5 u/L
- ASPARTATE AMINOTRANSFERASE [1]: 83.17 u/L
- BLOOD UREA NITROGEN [1]: 14.33 mg/dL
- CARBON DIOXIDE [1]: 33.17 mmol/L
- CHLORIDE [1]: 101 MEQ/L
- CHOLESTEROL [1]: 76.33 mg/dL
- CREATINE PHOSPHOKINASE [1]: 184.5 u/L
- CREATININE [1]: 0.13 mg/dL
- LACTATE DEHYDROGENASE [1]: 130.33 u/L
- LIPASE [1]: 11 u/L
- PHOSPHORUS [1]: 9.27 mg/dL
- POTASSIUM [1]: 6.26 MEQ/L
- SODIUM [1]: 143.57 MEQ/L
- TOTAL BILIRUBIN [1]: 0.18 mg/dL
- URIC ACID [1]: 1.38 mg/dL
- ABSOLUTE BASOPHIL [2]: 0 CELLS/uL
- ABSOLUTE EOSINOPHIL [2]: 0 CELLS/uL
- ABSOLUTE LYMPHOCYTE [2]: 8546.17 CELLS/uL
- ABSOLUTE MONOCYTE [2]: 49.5 CELLS/uL
- ABSOLUTE SEGMENTED NEUTROPHIL [2]: 554.33 CELLS/uL
- NUCLEATED RED BLOOD CELLS [2]: 0.17 /100WBC
- CARBON DIOXIDE [2]: 33.17 mmol/L
- CREATININE [2]: 0.18 mg/dL
- LACTATE DEHYDROGENASE [2]: 111.5 u/L
- LIPASE [2]: 9.5 u/L
- URIC ACID [2]: 0.78 mg/dL
- BASOPHIL [3]: 0.42%
- EOSINOPHIL [3]: 0.58%
- ERYTHROCYTE COUNT [3]: 8.06 x10E6/uL
- HEMATOCRIT [3]: 48.44%
- HEMOGLOBIN [3]: 16.34 G/DL
- LEUKOCYTE COUNT [3]: 13.04 x10E3/uL
- LYMPHOCYTE [3]: 85.12%
- MEAN CORPUSCULAR HEMOGLOBIN [3]: 20.26 pg
- MEAN CORPUSCULAR HEMOGLOBIN CONCENTRATION [3]: 33.74 G/DL
- MEAN CORPUSCULAR VOLUME [3]: 60.1 fL
- NEUTROPHIL [3]: 11.28%
- PLATELET COUNT [3]: 1226 x10E3/uL
- ALANINE AMINOTRANSFERASE [3]: 28.6 u/L
- ALBUMIN [3]: 3.94 G/DL
- ALKALINE PHOSPHATASE [3]: 254.6 u/L
- ASPARTATE AMINOTRANSFERASE [3]: 67.8 u/L
- BLOOD UREA NITROGEN [3]: 10.4 mg/dL
- CHLORIDE [3]: 104.6 MEQ/L
- CHOLESTEROL [3]: 57.6 mg/dL
- CREATINE PHOSPHOKINASE [3]: 224.8 u/L
- CREATININE [3]: 0.4 mg/dL
- PHOSPHORUS [3]: 10.66 mg/dL
- POTASSIUM [3]: 6.58 MEQ/L
- SODIUM [3]: 148.6 MEQ/L
- TOTAL BILIRUBIN [3]: 0.24 mg/dL
- ABSOLUTE BASOPHIL [4]: 0 CELLS/uL
- ABSOLUTE EOSINOPHIL [4]: 0 CELLS/uL
- ABSOLUTE LYMPHOCYTE [4]: 9500.33 CELLS/uL
- ABSOLUTE MONOCYTE [4]: 68 CELLS/uL
- ABSOLUTE SEGMENTED NEUTROPHIL [4]: 1065 CELLS/uL
- BASOPHIL [4]: 0%
- EOSINOPHIL [4]: 0%
- ERYTHROCYTE COUNT [4]: 5.04 x10E6/uL
- HEMATOCRIT [4]: 30.83%
- HEMOGLOBIN [4]: 12.23 G/DL
- LEUKOCYTE COUNT [4]: 10.63 x10E3/uL
- LYMPHOCYTE [4]: 90%
- MEAN CORPUSCULAR HEMOGLOBIN [4]: 24.3 pg
- MEAN CORPUSCULAR HEMOGLOBIN CONCENTRATION [4]: 39.67 G/DL
- MEAN CORPUSCULAR VOLUME [4]: 61.23 fL
- NEUTROPHIL [4]: 9%
- NUCLEATED RED BLOOD CELLS [4]: 0 /100WBC
- PLATELET COUNT [4]: 988.67 x10E3/uL
- ALANINE AMINOTRANSFERASE [4]: 55.67 u/L
- ALBUMIN [4]: 3.43 G/DL
- ALKALINE PHOSPHATASE [4]: 322 u/L
- ASPARTATE AMINOTRANSFERASE [4]: 70.67 u/L
- BLOOD UREA NITROGEN [4]: 11.67 mg/dL
- CARBON DIOXIDE [4]: 33.33 mmol/L
- CHLORIDE [4]: 101 MEQ/L
- CHOLESTEROL [4]: 79.33 mg/dL
- CREATINE PHOSPHOKINASE [4]: 148 u/L
- CREATININE [4]: 0.12 mg/dL
- LACTATE DEHYDROGENASE [4]: 105 u/L
- LIPASE [4]: 9.33 u/L
- PHOSPHORUS [4]: 10 mg/dL
- POTASSIUM [4]: 6.12 MEQ/L
- SODIUM [4]: 145.77 MEQ/L
- TOTAL BILIRUBIN [4]: 0.17 mg/dL
- URIC ACID [4]: 1.47 mg/dL
- ABSOLUTE BASOPHIL [5]: 0 CELLS/uL
- ABSOLUTE EOSINOPHIL [5]: 0 CELLS/uL
- ABSOLUTE LYMPHOCYTE [5]: 5111.33 CELLS/uL
- ABSOLUTE MONOCYTE [5]: 0 CELLS/uL
- ABSOLUTE SEGMENTED NEUTROPHIL [5]: 1222 CELLS/uL
- BASOPHIL [5]: 0%
- EOSINOPHIL [5]: 0%
- ERYTHROCYTE COUNT [5]: 4.43 x10E6/uL
- HEMATOCRIT [5]: 26.73%
- HEMOGLOBIN [5]: 10.7 G/DL
- LEUKOCYTE COUNT [5]: 6.33 x10E3/uL
- LYMPHOCYTE [5]: 76.67%
- MEAN CORPUSCULAR HEMOGLOBIN [5]: 24.2 pg
- MEAN CORPUSCULAR HEMOGLOBIN CONCENTRATION [5]: 40.03 G/DL
- MEAN CORPUSCULAR VOLUME [5]: 60.47 fL
- NEUTROPHIL [5]: 23.33%
- NUCLEATED RED BLOOD CELLS [5]: 0.67 /100WBC
- PLATELET COUNT [5]: 1253.67 x10E3/uL
- ALANINE AMINOTRANSFERASE [5]: 24 u/L
- ALBUMIN [5]: 2.23 G/DL
- ALKALINE PHOSPHATASE [5]: 221.33 u/L
- ASPARTATE AMINOTRANSFERASE [5]: 56 u/L
- BLOOD UREA NITROGEN [5]: 17.33 mg/dL
- CARBON DIOXIDE [5]: 31.67 mmol/L

From ChEMBL document CHEMBL3885881, “DrugMatrix”
